Read-outs that look alike come from different tables or passages of the source. One block for each molecule: values may come before it.
What was measured:
ALDH1A3 [1] = target: T1, ALDH1A3 (Homo sapiens, UniProt P47895); assay: KD evaluation by probe fluorescence (Tecan SPARK); format: binding
T1 construct: His-tag; made in house; host or cells: bacterial cells
T1 sequence (P47895 1-512): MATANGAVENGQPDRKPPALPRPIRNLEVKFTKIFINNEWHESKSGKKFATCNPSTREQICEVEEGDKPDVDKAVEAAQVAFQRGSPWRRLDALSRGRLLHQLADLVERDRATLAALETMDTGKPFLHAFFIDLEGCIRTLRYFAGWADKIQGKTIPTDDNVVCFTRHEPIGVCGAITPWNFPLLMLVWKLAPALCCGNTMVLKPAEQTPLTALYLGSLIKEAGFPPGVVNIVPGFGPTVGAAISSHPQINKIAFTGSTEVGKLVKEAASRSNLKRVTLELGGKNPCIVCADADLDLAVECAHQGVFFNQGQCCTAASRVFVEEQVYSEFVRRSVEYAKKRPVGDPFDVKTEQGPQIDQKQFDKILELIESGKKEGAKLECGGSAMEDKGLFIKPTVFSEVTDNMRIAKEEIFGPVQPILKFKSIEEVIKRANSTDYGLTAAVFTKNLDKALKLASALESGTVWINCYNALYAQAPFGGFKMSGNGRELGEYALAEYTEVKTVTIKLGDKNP
Method: (§1) A common protocol to express and purify all three members of the ALDHIA subfamily has been optimized. Briefly, induced cells, collected by centrifugation, were re-suspended in an appropriate volume of lysis buffer (50 mM Na2HPO4, 300 mM NaCl, 1 mM β-mercaptoethanol, 20 mM imidazole, pH 7.5) added of benzonase nuclease (250 U/μL) and Protease inhibitor cocktail from SIGMA. After ultracentrifugation, the clarified sample was purified by a His-tag affinity chromatography followed by size-exclusion chromatography, using an AKTA FPLC system, at 4° C. To evaluate the purity and homogeneity of the protein, after each purification step, eluted d fractions were analyzed by SDS-PAGE and the protein quantification was always determined by Bradford protein assay.
(§2) KD evaluation: on a Tecan—SPARK, probe 14 and 13 were tested at a fixed concentration of 10 μM. All the isoenzymes were tested in wide range of concentrations (from 100 μM to 1 μM). The analysis was settled with a BW of 20, monitoring the Em wavelength in range comprised between 520 and 535 nm for probe 14 and 520 and 580 nm for probe 13. The Ex was fixed at 420 nm for probe 14 and 440 nm for probe 13. The test was performed in quadruplicate with all the three isoenzymes. The recipe of the buffer reaction was the same as described before.

ALDH1A1 [2] = target: T2, ALDH1A1 (Homo sapiens, UniProt P00352); assay: KD evaluation by probe fluorescence (Tecan SPARK); format: binding; conditions: probe fixed at 10 μM, isoenzyme 100 μM to 1 μM
T2 construct: His-tag; made in house; host or cells: bacterial cells
T2 sequence (P00352 1-501): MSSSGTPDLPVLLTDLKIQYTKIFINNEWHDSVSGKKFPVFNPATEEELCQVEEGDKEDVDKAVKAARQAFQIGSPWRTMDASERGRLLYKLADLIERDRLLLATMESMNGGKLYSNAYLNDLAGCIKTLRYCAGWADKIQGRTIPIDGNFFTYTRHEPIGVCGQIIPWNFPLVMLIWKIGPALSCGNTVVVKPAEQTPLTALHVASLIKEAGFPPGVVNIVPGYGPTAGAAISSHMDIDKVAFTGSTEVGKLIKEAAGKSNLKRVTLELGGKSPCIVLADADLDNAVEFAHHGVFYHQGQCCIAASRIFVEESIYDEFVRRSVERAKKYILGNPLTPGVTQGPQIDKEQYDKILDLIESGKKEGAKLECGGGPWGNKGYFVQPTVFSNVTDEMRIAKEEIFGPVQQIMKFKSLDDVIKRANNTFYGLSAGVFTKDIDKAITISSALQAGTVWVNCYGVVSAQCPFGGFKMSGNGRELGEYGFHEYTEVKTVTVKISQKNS
Method: as §1, §2

ALDH1A2 [3] = target: T3, ALDH1A2 (Homo sapiens, UniProt O94788); assay: KD evaluation by probe fluorescence (Tecan SPARK); format: binding; conditions: probe fixed at 10 μM, isoenzyme 100 μM to 1 μM
T3 construct: His-tag; made in house; host or cells: bacterial cells
T3 sequence (O94788 1-518): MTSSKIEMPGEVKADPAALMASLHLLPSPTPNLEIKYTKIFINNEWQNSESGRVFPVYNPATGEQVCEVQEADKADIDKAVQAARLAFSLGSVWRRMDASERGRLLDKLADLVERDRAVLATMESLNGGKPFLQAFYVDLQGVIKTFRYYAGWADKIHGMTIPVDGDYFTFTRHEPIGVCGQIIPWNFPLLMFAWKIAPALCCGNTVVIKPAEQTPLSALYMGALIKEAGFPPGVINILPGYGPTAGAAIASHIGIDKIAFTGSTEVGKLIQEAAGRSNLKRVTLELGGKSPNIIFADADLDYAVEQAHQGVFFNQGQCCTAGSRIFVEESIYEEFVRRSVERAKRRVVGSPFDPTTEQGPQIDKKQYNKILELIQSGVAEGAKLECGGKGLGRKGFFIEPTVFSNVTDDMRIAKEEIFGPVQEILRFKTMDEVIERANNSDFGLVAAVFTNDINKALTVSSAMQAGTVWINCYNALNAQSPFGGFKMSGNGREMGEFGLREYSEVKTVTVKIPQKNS
Method: as §1, §2

ALDH1A3 [4] = target: T1, ALDH1A3; assay: Fluorescence of probes in buffer and in complex with the isoenzymes (Tecan SPARK); format: binding; conditions: in complex with the three isoenzymes, in particular ALDH1A3
Method: All five compounds were dissolved in DMSO (100%) to obtain two different initial stocks, one at 10 mM and a second one at 1 mM. […] The assay can be executed at a maximum DMSO percentage of 15%. The maximum probe concentration tested was 500 uM—15% DMSO. All the compounds were tested using a Tecan—SPARK, to analyze their absorbance, excitation and emission wavelength. Based on the literature, the absorbance of the curcumin by itself is comprised between 420 and 425 nm. At first, we measured the absorbance, and from those values, we performed a 3D analysis to highlights the correct Ex and Em wavelengths. To avoid any possible background in the fluorescence signal we performed a screening of every possible buffer used in our assays.

ALDH1A3 [5] = target: T1, ALDH1A3; assay: IC50 evaluation, NADH formation at 340 nm (Tecan SUNRISE); format: biochemical
Method: as §1
(§3) IC50 evaluation: on a Tecan—SUNRISE, probe 13 was tested in a serial dilution series from 200 μM to 3, 125 μM, against all the three isoenzymes. The recipe of reaction buffer was: 20 mM Tris HCl pH=8, 150 mM KCl, 1 mM B-mercaptoethanol, 500 μM NAD^+, 15% DMSO fixed, 20 mM acetaldehyde and 2.7 μM each isoenzyme. The analysis was conducted measuring the NADH formation, that has a specific absorbance wavelength (340 nm). The test was performed in triplicate with all the three isoenzymes.

ALDH1A1 [6] = target: T2, ALDH1A1; assay: as above; format: biochemical
Method: as §1, §3

ALDH1A2 [7] = target: T3, ALDH1A2; assay: as above; format: biochemical; conditions: 20 mM acetaldehyde, 500 μM NAD+, 15% DMSO, 2.7 μM isoenzyme
Method: as §1, §3

[8] = substrate: COc1cc(/C=C/C(=O)/C=C(O)/C=C/c2ccc(OCc3cn(CCOc4ccc(C=O)cc4)nn3)c(OC)c2)ccc1O; assay: KM evaluation, compound as possible substrate, NADH formation; format: biochemical, human; conditions: 5% DMSO, pH 7.5
Method: as §1
KM evaluation: on a Tecan—SUNRISE, due to the inconsistency of result of the KD evaluation with probe 13 and to its chemistry nature (benzaldehyde), we performed an analysis to evaluate this compound possible substrate. The compound was tested in a serial dilution from 300 to 3.125 μM, at 5% DMSO. The analysis was conducted measuring the NADH formation, that has a specific absorbance wavelength (340 nm). The recipe of the buffer reaction was the same as described before. The assay was performed only for ALDH1A1 and ALDH1A2. The test was performed in triplicate with all the three isoenzymes.

[9] = ALDH1A3, probe fixed at 10 μM, isoenzyme 100 μM to 1 μM, read-out: KD
[10] = ALDH1A3, 20 mM acetaldehyde, 500 μM NAD+, 15% DMSO, 2.7 μM isoenzyme, read-out: IC50
[11] = ALDH1A1, 20 mM acetaldehyde, 500 μM NAD+, 15% DMSO, 2.7 μM isoenzyme, read-out: IC50

Kd (ALDH1A3 [1]; [9]): 20.4 µM
Kd (ALDH1A1 [2]): 23.9 µM
Kd (ALDH1A2 [3]): 8.7 µM
increase of fluorescence in complex with the isoenzymes (ALDH1A3 [4]): no good result
IC50 (ALDH1A3 [5]; [10]): 5.1 µM
IC50 (ALDH1A1 [6]; [11]): 28.5 µM
IC50 (ALDH1A2 [7]): N.I.
Molecule: COc1cc(/C=C/C(O)=C/C(=O)/C=C/c2ccc(N(C)C)cc2)ccc1OCc1cn(CCOc2ccc(C=O)cc2)nn1 [Compound 15]

Molecule: CCOP(=O)(OCC)Oc1ccc(/C=C/C(=O)/C=C(O)/C=C/c2ccc(OCc3cn(CCOc4ccc(C=O)cc4)nn3)c(OC)c2)cc1OC [Compound 16]
Kd (ALDH1A3 [1]): 55.7 µM
increase of fluorescence in complex with the isoenzymes (ALDH1A3 [4]): no good result
IC50 (ALDH1A3 [5]): 8.5 µM
IC50 (ALDH1A1 [6]): 150 µM
IC50 (ALDH1A2 [7]): N.I.

Molecule: CCOC(=O)Cn1cc(COc2ccc(C=CC(=O)C=C(O)C=Cc3ccc(OP(=O)(OCC)OCC)c(OC)c3)cc2OC)nn1 [Compound 17]
Kd (ALDH1A3 [1]; [9]): 14.9 µM
Kd (ALDH1A1 [2]): 18.1 µM
IC50 (ALDH1A3 [5]; [10]): 158 µM
IC50 (ALDH1A1 [6]; [11]): 70.1 µM
IC50 (ALDH1A2 [7]): N.I.

B1: ALDH1A1 (Homo sapiens) (protein)
chain: T2 sequence (P00352 1-501)
notes: His-tag; made in house; host or cells: bacterial cells
Km ([8]; other: ALDH1A1, 300 to 3.125 μM): 255.2 µM

B2: ALDH1A2 (Homo sapiens) (protein)
chain: T3 sequence (O94788 1-518)
notes: as for B1
Km ([8]; other: ALDH1A2, 300 to 3.125 μM): 220.0 µM

From patent publication US20250281649A1, “PROBE DIRECTED TO ENZYME ALDH1A3 AND USE THEREOF IN THE DIAGNOSIS OF GLIOBLASTOMA” (Universita' Degli Studi Del Piemonte Orientale "A. Avogadro", priority 2021, published 2025)
